Source: patent US10058097B2, “Methods to increase corn productivity” (Valent BioSciences Corporation, priority 2016, dated 2018)

Tests used:
Assay type in all cases: in vivo
corn [1] = test: Greenhouse study: GB alone or in combination with GA4, nine days; conditions: GA4 120 mg/liter, GB 10,000 mg/liter; n = 7 plants
Method: (§1) In several of the following examples, corn was grown in greenhouse conditions, which are defined as follows. Seeds of a commercial hybrid variety were sown in Pro-Mix® BX (Pro-Mix is a registered trademark of Premier Horticulture Ltd.) with the addition of Osmocote (14-14-14) and gypsum in three-liter pots. Greenhouses were kept at 25±3° C. under a 16:8 hour photoperiod, with illumination at canopy level of ˜250 μmoles m^−2s^−1. Corn was typically fertigated with Peters 21-5-20+micronutrients, calcium ammonium nitrate and magnesium sulfate. Typical growth rates for corn under these conditions ranged from 4-5 cm/day.
(§2) In most greenhouse studies, spray applications were made. These applications were made in a track sprayer outfitted with a 4001E Teejet® nozzle (Teejet is available from and a registered trademark of Spraying Systems Co., Glendale Heights, Ill., USA) and applied at 40 psi. Although application volumes did vary between some studies, generally, 30 gallons/acre of spray solution was applied. Following spray applications, plants were returned to the greenhouse. Typically, experiments were blocked according to plant size, and a randomized complete block design (RCB) was used.
(§3) Synergy was determined using the following formula, in which a synergy factor is calculated by the Abbott method: % Cexp=A+B−(AB/100), here % Cexp is the expected efficacy and “in which A and B are the increase in growth (or resistance to stress) levels given by the single [plant growth regulators]. If the ratio between the experimentally observed efficacy of the mixture Cobs and the expected efficacy of the mixture is greater than 1, synergistic interactions are present in the mixture” (Gisi, Synergistic Interaction of Fungicides in Mixtures, The American Phytopathological Society, 86:11, 1273-1279, 1996).
In a greenhouse study, the effect of combining GB with GA4 was studied.

corn [2] = test: Greenhouse study: Gibberellins, (S)-ABA and Glycine betaine on corn growth; conditions: GA3 or GA4 120 mg/liter, GB 10000 mg/liter, (S)-ABA 8.8 mg/liter
Method: as §1, §2
When gibberellins are combined with specific ratios of (S)-(+)-abscisic acid (“(S)-ABA”), a surprising enhancement of corn growth after application is often observed. The addition of GB to gibberellin+(S)-ABA spray combinations further increases the growth-promoting activity of the mixtures, as is shown in Table 6.

corn plants [3] = test: Chilling stress study (10° C. for five days) after spray with GA3 or GB; conditions: chilling stress at 10° C. for five days; GA3 120 mg/liter, GB 3000 mg/liter; n = 7 plants
Method: In stress studies, plants were subjected to various stresses. In cold stress studies, after spraying, plants were grown in the greenhouse for an additional 48 hours before being measured and moved to a CMP6050 CONVIRON® chamber kept at 10° C. (Conviron is a registered trademark of Controlled Environments Limited Corporation). Illumination was at ˜225 μMoles, and light:dark conditions were on a 12:12 hour photoperiod. After 120 hours of chilling, plants were removed from the cold, measured, and returned to the greenhouse for 48 hours prior to harvest.
as §3
In a greenhouse and growth room study conducted in Long Grove, Ill., corn plants of a commonly grown hybrid were subjected to the following stress regimen: at two days post-foliar application, plants were moved into a controlled environment chamber, where the temperature was maintained at 10° C. with a 12:12 hour photoperiod for five days. At the end of the chilling period, the corn was moved back to the greenhouse for two days before destructive harvest.

potted corn plants [4] = test: Chronic drought stress greenhouse study, potted corn, 14 days; conditions: 20 Percent Volumetric Water Content, 120 mg/liter GA3, 3000 mg/liter GB, n = 5
Method: In drought stress studies, corn plants were sprayed at the V4 stage with solutions containing a non-ionic surfactant (0.25%, v/v) at 30 gallons of spray solution/acre and growth was determined by change in height from time of treatment or fresh and dry shoot weight measurements 14 days later.
In greenhouse drought stress studies, corn plants were treated and subsequently watered with an automated irrigation system that maintained the soil moisture in the pots at 45% or 20% volumetric water content (“VWC”). Plants set to 20% after treatment took about 4 days without the automated system adding water to those pots to reach 20% VWC and then the automated system added water as needed to maintain 20% VWC. Total soil moisture capacity was 45% VWC and 20% VWC represented drought stress conditions. This would be considered chronic stress, as a lower level of VWC was maintained throughout the experiment after treatment.

corn [5] = test: Nutrient stress greenhouse study, GA3 and/or GB, 7 days; conditions: GA3 120 mg/liter, GB 10,000 mg/liter; for Change in Height: n = 7 plants
Method: as §3
During rainy periods in March-May in the Midwestern United States, nitrogen fertilizer for corn is often limited due to a combination of leaching and mineralization. GB included with GA3 can help overcome the slow growth caused by low nutrients. In a greenhouse study in Long Grove, Ill. we evaluated the effect of GA3, GB and the combination under ‘normal nutrient’ and limited nutrient conditions.

greenhouse-grown maize [6] = test: Leaf chlorophyll by SPAD meter, GA3 dose +/- GB; conditions: GA3 0 mg/liter, GB 10000 mg/liter; n = 8 plants
Method: In the same study, leaf chlorophyll was monitored by measurements with a SPAD meter (Minolta Model 502; Ramsey, N.J.). In this study, the chlorophyll level in the most recently fully-expanded leaf was measured at five different points and the results averaged.

corn plants [7] = test: Greenhouse study: growth of corn after V3 spray with GA3 or GB, nine days; conditions: non-stressed greenhouse; spray at V3; GA3 120 mg/liter, GB 3000 mg/liter; n = 7
Method: as §1, §2
In a greenhouse study conducted in Long Grove, Ill., corn plants were sprayed at V3 stage with solutions containing a non-ionic surfactant (0.25%, v/v) at 30 gallons of spray solution/acre and growth was followed for nine days.
as §3
Based on a conservative approach, synergy was determined to be present at ratios of ≥1.10. When grown under non-stressed conditions, GA3 growth was synergized by the addition of 3,000 mg/liter glycine betaine (“GB”), with a synergy factor of 1.65 for growth and 1.68 for growth rate while dry weight/plant was not synergistic with a synergy factor of 0.95.

potted corn plants [8] = test: Acute drought stress greenhouse study, potted corn, 7 and 14 days; conditions: acute drought stressed; 120 ppm GA3, 3000 ppm GB; spray at V4
Method: In a separate acute drought stress greenhouse study conducted in Long Grove, Ill., corn plants were sprayed at V4 stage with solutions containing a non-ionic surfactant (0.25%, v/v) at 30 gallons of spray solution/acre and growth was determined by shoot height increase 7 and 14 days later. After treatment corn plants were not watered with the exception of one treatment of control (aqueous surfactant solution) that were watered as needed (well-watered control).

greenhouse-grown maize [9] = test: Greenhouse study: effect of GA3 dose +/- GB on growth, 7 and 14 days; conditions: GA3 0 mg/liter, GB 10000 mg/liter
Method: as §1, §2, §3
In a separate study, the effect of one rate of GB on various doses of GA3 was studied.

## C=C1C[C@]23C[C@H]1CC[C@H]2[C@@]12CC[C@H](O)[C@@](C)(C(=O)O1)[C@H]2[C@@H]3C(=O)O [GA4, gibberellin A4]
Corn [1]
  Dry Weight: 7.68 g
  Growth Rate: 7.1 cm/day
  Plant Growth over 9 days: 64.1 cm
Corn [2]
  7 days Change in Height: 33.9 cm
  14 days Change in Height: 62.2 cm
  Dry Weight: 8.1 g

## C[N+](C)(C)CC(=O)[O-] [GB, Glycine betaine]
Corn plants [3]
  Growth Rate: 2.16 cm/day
  Growth over 9 days: 19.41 cm
  Leaf Area of L1-L5: 356.47 cm^2
Potted corn plants [4]
  Percent Dry Weight of Drought Stressed Control: 94.33%
  Percent Fresh Weight of Drought Stressed Control: 93.16%
Corn [5]; Low Nutrients
  Dry Weight: 2.79 g
  Leaf Area (L1-L6): 611.73 cm^2
  Change in Height: 24.54 cm
Corn [5]; Normal Nutrients
  Dry Weight: 3.25 g
  Leaf Area (L1-L6): 656.76 cm^2
  Change in Height: 35.37 cm
greenhouse-grown maize [6]
  Chlorophyll (SPAD reading) 14 days: 34.0 SPAD reading
Corn plants [7]
  Dry Weight/Plant: 2.75 g
  Growth Rate: 4.49 cm/day
  Growth over 9 days: 40.4 cm
Potted corn plants [8]
  Shoot Growth 7 days after treatment as Percent Increase as compared to Drought Stressed Control: 95.9%
  Shoot Growth 14 days after treatment as Percent Increase as compared to Drought Stressed Control: 97.6%
Corn [1]
  Dry Weight: 7.47 g
  Growth Rate: 6.1 cm/day
  Plant Growth over 9 days: 55.2 cm
greenhouse-grown maize [9]
  Growth Rate, 0-7 day(s): 2.51 cm/day
  Growth Rate, 0-14 day(s): 6.23 cm/day
  Plant Growth over 14 days: 43.6 cm
greenhouse-grown maize [9]; n = 8 plants
  Plant Growth over 7 days: 17.6 cm
